Experimental data: US7208140B2, “Trimeric macrocyclic substituted benzene derivatives” (Schering Aktiengesellschaft, priority 2003, dated 2007)
Values joined by “and” are separate entries in the source; they are usually repeats but may differ in a detail not shown here. Equal entries are not always repeated.

Tests used:
[1] = Distribution coefficient in 1-butanol and tris-HCl buffer; type: physicochemical; conditions: for Distribution Coefficient of Butanol/Water: 1-butanol and tris-HCl buffer at pH 7.6
Method: The distribution coefficient of Example 3F was determined in comparison to Gadovist, iopromide and iotrolan in 1-butanol and tris-HCl buffer at pH 7.6.

[2] = tested on: Epithelial cell line MDCK; assay: Neutral red test of cell viability in epithelial cells of the distal renal tubule; type: cell-based, canine; conditions: 50% reduction of cell viability after 24 hours
Method: To determine the IC-50, the neutral red test was used in epithelial cells of the distal renal tubule. In addition, this test is very helpful for predicting with high accuracy the LD-50 values of newly synthesized compounds.
Epithelial cell line MDCK of the renal distal renal tubule of a canine kidney (ECACC No. 85011435) was incubated from 10,000 cells/well in Alpha MEM Eagle (10% fetal bovine serum) at 37° C. and 5% CO2, 95% atmospheric humidity for 20 hours with various Examples 1B, 3F and 5F. Neutral red was used as an indicator for cell viability and for measuring lyosomal integrity and employed to determine those contrast medium concentrations in which a 50% reduction of cell viability (IC-50) occurred after 24 hours.
Four independent replicates were tested for each concentration of contrast medium. […] The latter is a reference compound in clinical practice and a contrast medium with proven excellent compatibility. The highest compatibility was found for Example 3F with 1170 μmol of I eq/ml.

Male Wistar rats = assay: CT studies (computer tomography) of rats after intravenous injection; type: in vivo, rat; conditions: i.v.
Method: By way of example, the suitability of the described compound class was examined in Example 1B with the aid of computer tomography (CT) of rats. For the CT studies, a Siemens Somatom CR was available. The 5-second image was prepared with a layer thickness of 2 mm and a tube voltage of 125 kV. Substance 1B was formulated as an aqueous solution at a concentration of 0.17 mol/l (corresponds to 145 mg (1+Gd)/ml.
Male Wistar rats (400 g of body weight) were scanned before (FIG. 1a) and after intravenous injection (FIG. 1) of 1B in a dose of 0.15 mmol/kg (corresponds to 127 mg of (I+Gd)/kg).
This early phase reflects the blood perfusion of the renal cortex.

Wistar rats = assay: MRT studies (angiography and organ visualization) of rats after intravenous injection; type: in vivo, rat; conditions: i.v.
Method: The same substance (IB) was examined with the aid of magnetic resonance tomography (MRT) as a contrast medium.
The MRT studies were performed on a 1.5 T device (Siemens Symphonie with 40 mT/m gradients). 400 g Wistar rats were examined with T1-weighted image sequences (angiography TR 2.54 ms, TE 1.12 ms und α=40° or organ visualization TR 54 ms, TE 4.8 ms and α=40°). The angiography (MRA, FIG. 3) was from 0–60 seconds p.i., and the organ visualization (FIGS. 4a and b) was prepared 15 minutes after the injection. Substance 1B was formulated as an aqueous solution at a concentration of 0.17 mol/l (corresponds to 0.5 mol of Gd/l) and was intravenously injected in a dose of 0.03 mmol of substance or 0.1 mmol of Gd/kg.

SMILES	Distribution Coefficient of Butanol/Water [1]	IC50 [2]	further results
O=C([O-])CN1CCN(CC(=O)[O-])CCN([C@H](CO)[C@H](O)CO)CCN(CC(=O)[O-])CC1.[Gd+3] (racemic) [Gadobutrol, reference compound]	0.006 ± 0.0007	153 μmol of I eq/ml	–
CC(C(=O)NCC(=O)NCCNC(=O)c1c(I)c(C(=O)NCCNC(=O)CNC(=O)C(C)N2CCN(CC(=O)[O-])CCN(CC(=O)[O-])CCN(CC(=O)[O-])CC2)c(I)c(C(=O)NCCNC(=O)CNC(=O)C(C)N2CCN(CC(=O)[O-])CCN(CC(=O)[O-])CCN(CC(=O)[O-])CC2)c1I)N1CCN(CC(=O)[O-])CCN(CC(=O)[O-])CCN(CC(=O)[O-])CC1.[Gd+3].[Gd+3].[Gd+3] (stereo not drawn) [Example 1B, 1,3,5-Triiodotrimesic acid-N,N,N-tris-(3,6-diaza-4,7-dioxo-8-methyloctane-1,8-diyl-{10-[1,4,7-tris-(carboxylatomethyl)-1,4,7,10-tetraazacyclododecanyl, Gd-complex]})amide]	–	930 μmol of I eq/ml	CT contrasting of vessels and renal cortex (early phase) (Male Wistar rats; 0.15 mmol/kg (127 mg of (I+Gd)/kg), 125 kV): very clear contrasting of the blood-conveying vessels (A) and the renal cortex (N); renal excretion (contrasting of renal pelvis in CT) (Male Wistar rats; 0.15 mmol/kg, 15 minutes later): quick renal excretion; MRA visualization of arteries and heart (Wistar rats; 0.03 mmol of substance or 0.1 mmol of Gd/kg, 1.5 T, 0-60 seconds p.i.): excellent ability to visualize the large arteries (aorta, femoral artery) as well as the heart; MRT whole-body image, organ contrasting (Wistar rats; 0.1 mmol of Gd/kg, 1.5 T, 15 minutes after the injection): clear contrasting of liver (L) as well as kidneys; renal elimination (ureter visualized in MRT) (Wistar rats; 0.1 mmol of Gd/kg, 15 minutes after the injection): quick renal elimination
O=C([O-])CN1CCN(CC(=O)[O-])CCN(CC(=O)NCCNC(=O)c2c(I)c(C(=O)NCCNC(=O)CN3CCN(CC(=O)[O-])CCN(CC(=O)[O-])CCN(CC(=O)[O-])CC3)c(I)c(C(=O)NCCNC(=O)CN3CCN(CC(=O)[O-])CCN(CC(=O)[O-])CCN(CC(=O)[O-])CC3)c2I)CCN(CC(=O)[O-])CC1.[Gd+3].[Gd+3].[Gd+3] [Example 3F, 2,4,6-Triiodotrimesic acid-N,N,N-tris-(3-aza-4-oxopentane-1,5-diyl-{10-[1,4,7-tris-(carboxylatomethyl)-1,4,7,10-tetrazacyclododecanyl, Gdcomplex]})amide]	0.0002 and 0.0002 ± 0.0001	1170 μmol of I eq/ml	–
O=C([O-])CN1CCN(CC(=O)[O-])CCN(CC(O)CNC(=O)c2c(I)c(C(=O)NCC(O)CN3CCN(CC(=O)[O-])CCN(CC(=O)[O-])CCN(CC(=O)[O-])CC3)c(I)c(C(=O)NCC(O)CN3CCN(CC(=O)[O-])CCN(CC(=O)[O-])CCN(CC(=O)[O-])CC3)c2I)CCN(CC(=O)[O-])CC1.[Gd+3].[Gd+3].[Gd+3] (stereo not drawn) [Example 5G, 1,3.5-Triiodotrimesic acid-N,N,N-tris-(2-hydroxypropane-1,3-diyl-{10-[1,4,7-tris-(carboxylatomethyl)-1,4,7,10-tetraazacyclododecanyl]}, Gdcomplex)amide]	–	788 μmol of I eq/ml	–
COCC(=O)Nc1c(I)c(C(=O)NCC(O)CO)c(I)c(C(=O)N(C)CC(O)CO)c1I (stereo not drawn) [Iopromide]	0.051 ± 0.003	–	distribution coefficient of butanol/water relative to Example 3F ([1]; 0.051 vs. 0.0002): ≤ 255 ×; Distribution Coefficient of Butanol/Water ([1]; listed as lopromide): 0.051
CN(C(=O)CC(=O)N(C)c1c(I)c(C(=O)NC(CO)C(O)CO)c(I)c(C(=O)NC(CO)C(O)CO)c1I)c1c(I)c(C(=O)NC(CO)C(O)CO)c(I)c(C(=O)NC(CO)C(O)CO)c1I (stereo not drawn) [Iotrolan]	0.0065 ± 0.002	–	–
